Consider 8 molecules from US5395610A, “Agents for potentiating the effects of antitumor agents and combating multiple drug resistance” (Burroughs-Wellcome Co., priority 1989, dated 1995).

Data set [1] is described as follows: in vitro. It counts as cell-based, Chinese hamster. Particulars: hamster, cho auxb1 cells.
The nature of data set [2]: In vitro cytotoxicity / potentiation of Actinomycin D in Chinese hamster ovary cells, drug resistant C5S32 (MTT). To be noted: hamster, cho c5s32 cells, fraction of untreated cultures (1.00), read-out: Cytotoxicity, normalized absorbance, Drug Resistant C5S32, 0 (no Act D); for viability at 96 h, 1 µM: 1 μM potentiating agent alone; for viability at 96 h, 10 µM: 10 μM potentiating agent alone. The format is cell-based.

Data set [3] concerns Chinese hamster ovary (CHO) cells, drug resistant C5S32. The data set is described as above. Particulars: 96 h, fraction of Act D alone (1.00). The format is cell-based.
Data set [4] in a line: In vitro cytotoxicity / potentiation of Actinomycin D in human KB epidermoid carcinoma cells, wildtype KB 3-1 (MTT). The format is cell-based. Particulars: human, kb 3-1 cells, fraction of untreated cultures, read-out: Cytotoxicity, normalized absorbance, Wildtype KB 3-1, 0 (no Act D); for viability at 96 h, 1 µM: 1 μM potentiating agent alone; for viability at 96 h, 10 µM: 10 μM potentiating agent alone.

Data set [5] relates to human KB epidermoid carcinoma cells, wildtype KB 3-1. The data set is described as above. The format is cell-based. To be noted: 96 h, fraction of Act D alone.
Data set [6] can be described thus: In vitro cytotoxicity / potentiation of Actinomycin D in human KB epidermoid carcinoma cells, drug resistant KB V-1 (MTT). The format is cell-based. Particulars: human, kb v-1 cells, fraction of untreated cultures, read-out: Cytotoxicity, normalized absorbance, Drug Resistant KB V-1, 0 (no Act D); for viability at 96 h, 1 µM: 1 μM potentiating agent alone; for viability at 96 h, 10 µM: 10 μM potentiating agent alone.

In data set [7] the test system is human KB epidermoid carcinoma cells, drug resistant KB V-1. Described as above. The format is cell-based. Particulars: 96 h, fraction of Act D alone.
[8] abbreviates: 1 μM potentiating agent + Act D 0.5 μM.
Where [9] appears, read: 10 μM potentiating agent + Act D 0.5 μM.
The mark [10] stands for this setting: 1 μM potentiating agent + Act D 0.1 nM.
Where [11] appears, read: 10 μM potentiating agent + Act D 0.1 nM.
Setting [12] is: 1 μM potentiating agent + Act D 20 nM.
Where [13] appears, read: 10 μM potentiating agent + Act D 20 nM.

As to `Brc1ccc2c(c1)/C(=C\CN1CCCC1)c1ccccc1CO2` [(F), (Z)-1-[2-(2-Bromo-6,11-dihydrodibenz [b,e]-oxepin-11-ylidene)ethyl]pyrrolidine], the viability at 96 h, 1 µM in data set [1] came to 100%; in data set [2], 82%; in data set [4], 84%; in data set [6], 80%. For the same molecule, the viability at 96 h, 10 µM in data set [1] came to 88%; in data set [2], 28%; in data set [4], 78%; in data set [6] it was 59%. Further, the entries for the “Synergism with Actinomycin D, normalized absorbance, Drug Resistant C5S32, +ACT D” value in data set [3] (setting [8]) and in data set [3] (setting [9]) were 0.68 and 0.19, respectively. The “Synergism with Actinomycin D, normalized absorbance, Wildtype KB 3-1, +ACT D” value came out at 0.86 in data set [5] (setting [10]) and 0.68 in data set [5] (setting [11]). For the same molecule, the “Synergism with Actinomycin D, normalized absorbance, Drug Resistant KB V-1, +ACT D” value in data set [7] (setting [12]) was determined as 0.77; in data set [7] (setting [13]), 0.12.
On to `Brc1ccc2c(c1)/C(=C\CCN1CCCC1)c1ccccc1CO2` [(G), (Z)-1-[3-(2-Bromo-6,11-dihydrodibenz [b,e]-oxepin-11-ylidene)propyl]pyrrolidine], for which the viability at 96 h, 1 µM in data set [1] was determined as 100%; in data set [2], 54%; in data set [4], 87%; in data set [6], 86%. The viability at 96 h, 10 µM in data set [1] was determined as 100%; in data set [2], 15%; in data set [4], 74%; in data set [6] it was 70%. The “Synergism with Actinomycin D, normalized absorbance, Drug Resistant C5S32, +ACT D” value in data set [3] (setting [8]) is on record as 0.47; in data set [3] (setting [9]) it was 0.10. The “Synergism with Actinomycin D, normalized absorbance, Wildtype KB 3-1, +ACT D” value in data set [5] (setting [10]) is 0.80; in data set [5] (setting [11]), 0.87. Further, the “Synergism with Actinomycin D, normalized absorbance, Drug Resistant KB V-1, +ACT D” value in data set [7] (setting [12]) is reported as 0.91; in data set [7] (setting [13]), 0.35.
As for `CCN(CC)CC/C=C1/c2ccccc2COc2ccc(Br)cc21` [(I), (Z)-3-(2-Bromo-6,11-dihydrodibenz [b,e]oxepin-11-ylidene)-N,N-diethylpropylamine], the viability at 96 h, 1 µM in data set [1] was 90%; in data set [2], 95%; in data set [4], 99%; in data set [6], 98%. The viability at 96 h, 10 µM in data set [1] was determined as 92%; in data set [2] it was 100%; in data set [4] it was 30%; in data set [6], 34%. For the same molecule, the “Synergism with Actinomycin D, normalized absorbance, Drug Resistant C5S32, +ACT D” value is 0.77 in data set [3] (setting [8]) and 0.36 in data set [3] (setting [9]). Further, the “Synergism with Actinomycin D, normalized absorbance, Wildtype KB 3-1, +ACT D” value in data set [5] (setting [10]) is reported as 0.99; in data set [5] (setting [11]), 0.40. Moreover, the “Synergism with Actinomycin D, normalized absorbance, Drug Resistant KB V-1, +ACT D” value was 0.95 in data set [7] (setting [12]) and 0.04 in data set [7] (setting [13]).
Turning to `Brc1cccc2c1OCc1ccccc1C2=CCN1CCCC1` [(J), 1-[2-(4-Bromo-6,11-dihydrodibenz[b,e]oxepin-11-ylidine)-ethyl]pyrrolidine 60% Z, 40% E], the viability at 96 h, 1 µM in data set [1] stood at 100%; in data set [2], 80%; in data set [4], 89%; in data set [6] it was 88%. Moreover, the viability at 96 h, 10 µM amounted to 100% in data set [1], 29% in data set [2], 80% in data set [4] and 45% in data set [6]. The “Synergism with Actinomycin D, normalized absorbance, Drug Resistant C5S32, +ACT D” value in data set [3] (setting [8]) is on record as 0.66; in data set [3] (setting [9]) it was 0.12. In addition, the “Synergism with Actinomycin D, normalized absorbance, Wildtype KB 3-1, +ACT D” value is 0.85 in data set [5] (setting [10]) and 0.77 in data set [5] (setting [11]). The results for the “Synergism with Actinomycin D, normalized absorbance, Drug Resistant KB V-1, +ACT D” value in data set [7] (setting [12]) and in data set [7] (setting [13]) were 0.74 and 0.01, respectively.
Regarding `Brc1ccc2c(c1)/C(=C/CCN1CCCC1)c1ccccc1CO2` [(K), (E)-1-[3-(2-Bromo-6,11-dihydrodibenz [b,e]-oxepin-11-ylidene)propyl]pyrrolidine], the viability at 96 h, 1 µM is 83% in data set [1], 100% in data set [2], 85% in data set [4] and 86% in data set [6]. Also, the viability at 96 h, 10 µM was 87% in data set [1], 100% in data set [2], 100% in data set [4] and 8% in data set [6]. The “Synergism with Actinomycin D, normalized absorbance, Drug Resistant C5S32, +ACT D” value in data set [3] (setting [8]) came out at 0.79; in data set [3] (setting [9]), 0.28. The “Synergism with Actinomycin D, normalized absorbance, Wildtype KB 3-1, +ACT D” value in data set [5] (setting [10]) is reported as 0.77; in data set [5] (setting [11]), 0.03. Moreover, the results for the “Synergism with Actinomycin D, normalized absorbance, Drug Resistant KB V-1, +ACT D” value in data set [7] (setting [12]) and in data set [7] (setting [13]) were 0.88 and 0.13, respectively.
As to `CN(C)CCC=C1c2ccc(Br)cc2COc2ccccc21` [(L), (E)/(Z) -3-(8-Bromo-6,11-dihydrodibenz [b,e]-oxepine-11-ylidene)-N,N-dimethylpropylamine (80% Z:20% E)], the viability at 96 h, 1 µM in data set [1] was found to be 83%; in data set [2] it was 92%; in data set [4] it was 100%; in data set [6], 98%. The viability at 96 h, 10 µM came out at 81% in data set [1], 99% in data set [2], 97% in data set [4] and 51% in data set [6]. Also, the “Synergism with Actinomycin D, normalized absorbance, Drug Resistant C5S32, +ACT D” value is 0.85 in data set [3] (setting [8]) and 0.42 in data set [3] (setting [9]). The “Synergism with Actinomycin D, normalized absorbance, Wildtype KB 3-1, +ACT D” value in data set [5] (setting [11]) was found to be 0.94. The results for the “Synergism with Actinomycin D, normalized absorbance, Drug Resistant KB V-1, +ACT D” value in data set [7] (setting [12]) and in data set [7] (setting [13]) were 1.00 and 0.23, respectively.
Regarding `Brc1ccc2c(c1)/C(=C/CCN1CCCC1)c1cc(Br)ccc1OC2` [(O), (Z)-1-[3-(2,9-dibromo-6,11-dihydrodibenz [b,e]-oxepin-11-ylidene)propyl]pyrrolidine], the viability at 96 h, 1 µM in data set [1] was found to be 100%; in data set [2], 48%; in data set [4], 79%; in data set [6], 74%. Moreover, the viability at 96 h, 10 µM in data set [1] is 93%; in data set [2], 35%; in data set [4], 64%; in data set [6], 7%. For the same molecule, the “Synergism with Actinomycin D, normalized absorbance, Drug Resistant C5S32, +ACT D” value in data set [3] (setting [8]) was 0.58; in data set [3] (setting [9]), 0.38. Also, the “Synergism with Actinomycin D, normalized absorbance, Wildtype KB 3-1, +ACT D” value in data set [5] (setting [10]) is on record as 0.81; in data set [5] (setting [11]), 0.73. Further, the “Synergism with Actinomycin D, normalized absorbance, Drug Resistant KB V-1, +ACT D” value in data set [7] (setting [12]) was determined as 0.78; in data set [7] (setting [13]) it was 0.06.
Consider `CN(C)CC/C=C1\c2ccccc2COc2ccc(F)cc21` [(P), (E)-3-(2-fluoro-6,11-dihydrodibenz [b,e]oxepin-11-ylidine)-N,N-dimethylpropylamine], for which the viability at 96 h, 1 µM in data set [1] is 100%; in data set [2], 61%; in data set [4] it was 65%; in data set [6] it was 73%. The viability at 96 h, 10 µM amounted to 100% in data set [1], 31% in data set [2], 65% in data set [4] and 52% in data set [6]. The “Synergism with Actinomycin D, normalized absorbance, Drug Resistant C5S32, +ACT D” value in data set [3] (setting [8]) is recorded as 0.70; in data set [3] (setting [9]), 0.38. Besides, the figures for the “Synergism with Actinomycin D, normalized absorbance, Wildtype KB 3-1, +ACT D” value in data set [5] (setting [10]) and in data set [5] (setting [11]) were 0.72 and 0.71, respectively. For the same molecule, the figures for the “Synergism with Actinomycin D, normalized absorbance, Drug Resistant KB V-1, +ACT D” value in data set [7] (setting [12]) and in data set [7] (setting [13]) were 0.72 and 0.58, respectively.
